# Patent US7034020B2, “Derivatives of butyric acid and uses thereof” (The University of Arkansas for Medical Science, priority 1999, dated 2006)
# Values joined by “and” are separate entries in the source; they are usually repeats but may differ in a detail not shown here. Identical values can stand only once. Like-named read-outs stand apart in the source and are kept apart here.
# What was measured:
# [1] = test system: KLH-specific Th1 cells (clone D3); assay: IL-2-induced proliferation of Th1 cells in the presence of butyrate derivatives; type: cell-based, C57BL/10 mice; conditions: for Suppression of IL-2-induced proliferation of Th1 cells: 10% Con A CM, various concentrations, proliferation after 2 days
# Experimental: KLH-specific Th1 cells (clone D3) are stimulated with IL-2 (10% Con A CM) in the presence of different concentrations of n-butyrate or butyrate derivatives. In FIG. 2A Th1 cell proliferation is measured after 2 days. In FIG. 2B, the inhibitors are washed out after 24 hours, and the Th1 cells reincubated with fresh IL-2-containing medium. Proliferation of the Th1 cells restimulated with IL-2 in the absence of the inhibitors is measured after an additional 2 days. This experiment was repeated three times, and the proliferation data represents the means of the […] experiments.
# The KLH-specific were developed in C57BL/10 mice, and characterized as Th1 clones based on their ability to secrete IL-2, but not IL-4. The Th1 clones were passed every 7–14 days using KLH, irradiated syngeneic spleen cells as antigen-presenting cells (APC), and IL-2-containing Con A CM using a previously described protocol (Gilbert et al., 1990).
# To test the ability of the butyrate derivatives to suppress T cell activity […], Th1 cells [(5×10^4 cells/well in 96 well plates (Costar)] are stimulated with 10% IL-2-containing Con A CM in the presence of various concentrations of different butyrate derivatives. In some cultures, Th1 cell proliferation is measured after two days. In other cultures, the Th1 cells are washed after 24 hours, and fresh IL-2-containing medium is added. Proliferation is measured in the washed, IL-2-restimulated cultures after an additional 2 days.
# [2] = test system: total anti-ovalbumin antibody in the serum; assay: Primary anti-ovalbumin antibody production in vivo (ELISA), derivatives on Days 1–3; design: species or system C57BL/10 mice; conditions: 0.091 mmol ip Days 1–3; serum day 10; versus saline
# Experimental: C57BL/10 mice are injected ip on Day 0 with ovalbumin followed by ip injections of saline, or one of three different butyrate derivatives on Days 1–3.
# The butyrate derivatives are tested for their ability to suppress lymphocyte activity in vivo. C57BL/10 mice (5 mice/group) are injected ip with 100 μg of ovalbumin in conjunction with complete Freund's adjuvant on Day 0. In one experiment, the mice also receive one ip injection per day of the butyrate derivatives (0.091 mmol) on Days 1–3. Serum samples are obtained 10 days after the initial injection with ovalbumin, and tested for the presence of anti-ovalbumin antibodies using an ELISA. To perform the ELISA 96 well plates (Costar 3595) are first incubated with ovalbumin (100 μl/well of 100 μg/ml in PBS) overnight at 4° C. The plates are then washed 4 times with PBS and 0.5% Tween 20, blocked with 1% fetal calf serum for 30 minutes at 37° C., and washed again. Individual serum samples are added (diluted 1/100 or 1/1000 in PBS), and the plates are incubated for 2 hours at 20° C. The plates were next washed 7 times with PBS/Tween, and alkaline phosphate (AP)-labeled goat anti-mouse IgG, IgA, IgM (H+L) (Zymed) is added ( 1/1000) for 1 hour at 20° C. The plates are again washed 7 times with PBS/Tween, alkaline phosphate substrate (1 mg/ml) is added. After 10 minutes, Ig levels are quantified by an ELISA reader (absorbance 405 nm). The concentration of anti-ovalbumin is determined by comparison with a standard curve obtained using mouse anti-ovalbumin antibody (Sigma; St. Louis, Mo.). To measure isotype-specific anti-ovalbumin antibodies, serum samples (diluted at 1/300 or 1/1000) are incubated on the ovalbumin-coated plates as described above. […] Ig levels are presented as OD measurements.
# [3] = humans; perfused at doses as high as 2 g/kg/day (Perrine et al., 1994); cited from earlier work
# [4] = test system: Anti-HGG antibody in serum; assay: Primary anti-HGG antibody response in mice treated with n-butyrate; type: in vivo; design: Anti-HGG antibody in serum of individual mice: unit not given here; conditions: for Anti-HGG antibody in serum, group mean (x) / Anti-HGG antibody in serum of individual mice: ELISA day 9; for Anti-HGG antibody in serum, group mean (x): mean of 5 mice; for Anti-HGG antibody in serum of individual mice: HGG 100 μg ip day 0
# From the text: Prior to testing the suppressive effects of butyrate prodrugs in vivo, the ability of n-butyrate to inhibit a primary antibody response in mice was examined.
# [5] = Daniel et al., 1989, cited from earlier work
# [6] = Experiment 1, 5.5 mg n-butyrate ip days 2–5
# [7] = Experiment 2, 5.5 mg n-butyrate ip days 2–6
smiles,measurement,setting,value
"CCCC(=O)OCCN1CCN(C(=O)CCC)CC1.Cl [BEB, 2-(4-Butanoylpiperazinyl)ethyl butanoate hydrochloride]",Suppression of IL-2-induced proliferation of Th1 cells,[1],comparable to n-butyrate
same,Proliferation to IL-2 after compounds are washed out,"[1]; washed after 24 hours, fresh IL-2 medium, additional 2 days",regained their ability to proliferate to IL-2
same,Effect on primary antigen-specific antibody production in vivo,[2],significantly less antigen-specific antibody than control mice
"CCCC(=O)NCCN1CCOCC1.Cl [MEBA, 2-(4-Morpholinyl)ethyl butanamide hydrochloride]",Suppression of IL-2-induced proliferation of Th1 cells,[1],does not suppress
same,Effect on primary antigen-specific antibody production in vivo,[2],unable to suppress
CCCC(=O)O.CCCC(=O)O.CCCC(=O)O.CCCC(=O)O.N=C(N)NCCC[C@H](N)C(=O)O.N=C(N)NCCC[C@H](N)C(=O)O.N=C(N)NCCC[C@H](N)C(=O)O [arginine salt of butyrate],Toxicity,[3],nontoxic
CCCC(=O)O [n-butyrate],"Anti-HGG antibody in serum, group mean (x)",[4]; [6],x = 86 ± 72
same,Anti-HGG antibody in serum of individual mice,[4]; [6],202 and 91 and 29 and 83 and 24
same,"Anti-HGG antibody in serum, group mean (x)",[4]; [7],x = 12 ± 11
same,Anti-HGG antibody in serum of individual mice,[4]; [7],12 and 6 and 4 and 9 and 31
same,Suppression of primary antibody response,"[4]; mice, n-butyrate ip, versus control",40–50%
same,half-life in vivo,[5],six
same,half-life in vivo,[5]; listed as n-buytyrate,3 to 6 min
